Data from patent US6960321B1, “Sterilization of fire sprinkler systems” (priority 1999, dated 2005).
Each block holds one compound with its values, some of them ahead of it.

Experiments:
[1] = system: Acid Producing Bacteria; experiment: MICkit microbiological testing of pipe water and scrapings, acid producing bacteria; assay type: cell-based
Procedure: (§1) One end cap of the pipe was removed and the contaminated water poured out of the pipe and a pre-sterilization sample of the water and scrapings from the interior pipe wall were taken under sterile conditions for microbiological testing employing a MICkit™ supplied by Bioindustrial Technologies, Inc., Georgetown, Tex. The microbiological samples were incubated for three weeks at 35° C. and observed for microbiological growth.
(§2) Steam was then injected into the test pipe by opening the ball valve slowly with the steam pressure at 30 lbs pressure (135° C.). The temperature at the end of the test pipe rapidly rose to 94° C. and then appeared to remain nearly constant. The ball valve was then closed and the pipe cooled to room temperature. The condensate water and scrapings from the interior of the test pipe were collected by removal of the pipe from the adapter under sterile conditions. The samples so collected were microbiologically tested as above.
(§3) The end cap was then replaced with a ball valve and the steam sterilization was repeated. The ball valve at the end of the pipe was opened slightly to allow condensate and live steam to escape. The temperature at the end of the pipe rapidly rose to 110° C. The test was terminated by closing the ball valves and allowing the pipe to cool to room temperature. The pipe was again sampled for microbiological testing as above.
(§4) Microbiologically contaminated water was obtained from a “dead end” water feed-line to a fire protection system and was assayed microbiologically using the MICkit™ giving the following results after only 2 days of incubation at 35° C.:
(§5) The steam was allowed to slowly enter the pipe by regulating the input ball valve with the outlet ball valve open. Steam flowed through the pipe, heating it rapidly to near 100° C. The outlet ball valve was then nearly closed allowing the steam pressure in the pipe to increase. The temperature at the end of the pipe reached 135° C. and was kept there for five minutes. The inlet and outlet ball valves were closed and the pipe with the valves closed was removed and cooled in a stream of water. A small amount of sterile water (autoclaved at 121° C. for 15 minutes) was added to the sterilized pipe and the pipe raised, lowered and rotated to rinse the inside of the pipe system. The pipe was then opened and the water and scrapings from the side of the pipe were taken using sterile techniques for microbiological analysis.
(§6) The drained pipe was then sterilized as in Example 2 (per FIG. 2) using steam and a temperature of 135° C. by controlling the inlet and outlet ball valves. The ball valves at the ends of the pipe were then closed, the pipe removed from the test station and cooled with water. A small amount of sterile water was introduced and the inside of the pipe rinsed with it for several minutes. The pipe was then opened and the water and scrapings from the side of the pipe taken for microbiological analysis.

[2] = system: Iron Related Bacteria; experiment: MICkit microbiological testing of pipe water and scrapings, iron related bacteria; assay type: cell-based
Procedure: as §1, §2, §3, §4, §5, §6

[3] = system: Sulfate Reducing Bacteria; experiment: MICkit microbiological testing of pipe water and scrapings, sulfate reducing bacteria; assay type: cell-based
Procedure: as §1, §2, §3, §4, §5, §6

[4] = system: Low Nutrient Bacteria; experiment: MICkit microbiological testing of pipe water and scrapings, low nutrient bacteria; assay type: cell-based
Procedure: as §1, §2, §3, §4, §5, §6

[5] = system: aerobic bacteria (colony forming units); experiment: Aerobic plate count of pipe water and scrapings; assay type: cell-based
Procedure: Microbiologically contaminated water was obtained from a “dead end” water feed-line to a fire protection system and was assayed microbiologically using the […] giving the following results after only 2 days of incubation at 35° C.: [table] The steam was allowed to slowly enter the pipe by regulating the input ball valve with the outlet ball valve open. Steam flowed through the pipe, heating it rapidly to near 100° C. The outlet ball valve was then nearly closed allowing the steam pressure in the pipe to increase. The temperature at the end of the pipe reached 135° C. and was kept there for five minutes. The inlet and outlet ball valves were closed and the pipe with the valves closed was removed and cooled in a stream of water. A small amount of sterile water (autoclaved at 121° C. for 15 minutes) was added to the sterilized pipe and the pipe raised, lowered and rotated to rinse the inside of the pipe system. The pipe was then opened and the water and scrapings from the side of the pipe were taken using sterile techniques for microbiological analysis. The drained pipe was then sterilized as in Example 2 (per FIG. 2) using steam and a temperature of 135° C. by controlling the inlet and outlet ball valves. The ball valves at the ends of the pipe were then closed, the pipe removed from the test station and cooled with water. A small amount of sterile water was introduced and the inside of the pipe rinsed with it for several minutes. The pipe was then opened and the water and scrapings from the side of the pipe taken for microbiological analysis.

[6] = Analysis of residual sodium hypochlorite in water standing in iron pipe; assay type: physicochemical; conditions: 50 ppm in potable tap water in iron pipe, ambient temperature, after 24 hours
Description: The sterilized pipe from Example 2 was then filled with potable tap water containing 50 ppm sodium hypochlorite and allowed to stand at ambient temperature. The sodium hypochlorite, being an oxidizing agent, rapidly dissipated when in contact with the interior iron pipe surface.

[7] = Example 3, steam-sterilized pipe filled with potable tap water containing 50 ppm sodium hypochlorite, 24 hours plus seven days at ambient temperature
[8] = Example 5, sterilized pipe recontaminated 16 hours with dead end water, then tap water with 50 ppm sodium hypochlorite overnight, incubation 15 days
[9] = Example 1, contaminated 1-inch sprinkler pipe, steam, pipe end 94° C., capped end, incubated three weeks at 35° C.
[10] = Example 1, steam repeated with outlet ball valve, pipe end 110° C., incubated three weeks at 35° C.
[11] = Example 2, new pipe infected with dead end water, steam 135° C. for five minutes, incubation 15 days
[12] = Example 4, chemically cleaned contaminated pipe, steam 135° C., after 15 days

sodium hypochlorite remaining in the water [6]: 0 ppm
SMILES: OCl [sodium hypochlorite, reference compound]
APB [1, 7]: negative
APB [1, 8]: negative
IRB [2, 7]: negative
IRB [2, 8]: negative
SRB [3, 7]: negative
SRB [3, 8]: negative
LNB [4, 7]: negative
LNB [4, 8]: positive
APC [5, 7]: < 1 colony forming units per mil.
APC [5, 8]: < 1 colony forming units per mil.

SMILES: O [steam]
APB [1, 9]: Negative
APB [1, 10]: Negative
APB [1, 11]: negative
APB [1, 12]: negative
IRB [2, 9]: Negative
IRB [2, 10]: Negative
IRB [2, 11]: negative
IRB [2, 12]: negative
SRB [3, 9]: Negative
SRB [3, 10]: Negative
SRB [3, 11]: negative
SRB [3, 12]: negative
LNB [4, 9]: Negative
LNB [4, 10]: Negative
LNB [4, 11]: negative
LNB [4, 12]: negative
APC [5, 11]: < 1 colony forming units per mil.
APC [5, 12]: < 1 colony forming units per mil.
